Columns and labels:
[1] = target: Thymidylate synthase (Escherichia coli) (UniProt C3SWJ7); assay: Inhibition of TS from Escherichia coli at >2.2*10-5 nM
Thymidylate synthase [2] = target: T1, Thymidylate synthase (Homo sapiens, UniProt P04818)
Target sequence in this assay (P04818 whole entry): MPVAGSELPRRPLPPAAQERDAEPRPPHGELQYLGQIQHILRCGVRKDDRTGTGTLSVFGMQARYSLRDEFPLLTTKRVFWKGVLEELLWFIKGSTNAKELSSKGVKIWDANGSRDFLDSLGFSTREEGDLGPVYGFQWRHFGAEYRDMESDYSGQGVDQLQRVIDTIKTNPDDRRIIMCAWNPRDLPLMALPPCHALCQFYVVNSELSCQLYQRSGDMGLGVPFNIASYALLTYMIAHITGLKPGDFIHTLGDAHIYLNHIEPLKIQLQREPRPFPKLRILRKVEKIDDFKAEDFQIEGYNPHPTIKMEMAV

[3] = target: T2, Dihydrofolate reductase (Homo sapiens) (UniProt P00374); assay: Inhibition of recombinant human DHFR at >26 uM
T2 sequence (whole entry): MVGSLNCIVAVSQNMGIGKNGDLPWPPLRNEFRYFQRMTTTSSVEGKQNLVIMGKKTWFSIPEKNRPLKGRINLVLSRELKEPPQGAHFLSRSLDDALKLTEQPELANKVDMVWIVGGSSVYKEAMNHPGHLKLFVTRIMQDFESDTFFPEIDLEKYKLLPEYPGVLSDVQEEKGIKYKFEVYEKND

[4] = target: T2, Dihydrofolate reductase (Homo sapiens); assay: Inhibition of recombinant human DHFR at >31 uM
[5] = target: Thymidylate synthase (Escherichia coli) (UniProt C3SWJ7); assay: Inhibition of TS from Escherichia coli at >2.6*10-5 nM
Thymidylate synthase [6] = target: Thymidylate synthase (Escherichia coli, UniProt C3SWJ7); assay: Inhibition of TS from Escherichia coli
Thymidylate synthase (Escherichia coli, UniProt C3SWJ7), sequence (C3SWJ7 whole entry): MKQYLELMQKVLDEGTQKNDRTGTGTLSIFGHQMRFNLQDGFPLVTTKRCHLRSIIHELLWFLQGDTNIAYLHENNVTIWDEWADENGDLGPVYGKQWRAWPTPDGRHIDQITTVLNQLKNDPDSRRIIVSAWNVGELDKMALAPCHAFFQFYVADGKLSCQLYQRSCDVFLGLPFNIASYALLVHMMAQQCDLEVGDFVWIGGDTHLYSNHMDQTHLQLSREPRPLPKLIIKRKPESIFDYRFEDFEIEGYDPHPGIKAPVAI

[7] = target: T2, Dihydrofolate reductase (Homo sapiens); assay: Inhibition of recombinant human DHFR at >29 uM
[8] = target: Thymidylate synthase (Escherichia coli) (UniProt C3SWJ7); assay: Inhibition of TS from Escherichia coli at >2.3*10-5 nM
CCRF-CEM [9] = assay: Protection against growth of CCRF-CEM cells in presence of 5 uM Thymidine and 10 uM Deoxycytidine, relative to control; assay type: functional, Homo sapiens
CCRF-CEM [10] = assay: Protection against growth of CCRF-CEM cells in presence of 10 uM Deoxycytidine, relative to control; assay type: functional, Homo sapiens
R2-CCRF-CEM = assay: Inhibition of growth in MTX-resistant CCRF-CEM cell line, R2 cells; assay type: functional, cell-based; settings: Homo sapiens
R1-CCRF-CEM = assay: Inhibition of growth in MTX-resistant CCRF-CEM cell line, R1 cells; assay type: functional, cell-based; settings: Homo sapiens
CCRF-CEM [11] = assay: Protection against growth of CCRF-CEM cells in presence of 10 uM Hypoxanthine, relative to control; assay type: functional, Homo sapiens
CCRF-CEM [12] = assay: Protection against growth of CCRF-CEM cells in presence of 5 uM Thymidine, relative to control; assay type: functional, Homo sapiens
CCRF-CEM [13] = assay: Protection against growth of CCRF-CEM cells in presence of 5 uM Thymidine, 10 uM Deoxycytidine and 10 uM Hypoxanthine, relative to control; assay type: functional, Homo sapiens
CCRF-CEM [14] = assay: Protection against growth of CCRF-CEM cells in presence of 10 uM Hypoxanthine and 10 uM Deoxycytidine, relative to control; assay type: functional, Homo sapiens
CCRF-CEM [15] = assay: Protection against growth inhibition of CCRF-CEM cells in presence of 0.1 uM of Leucovorin at concentrations that inhibited the growth by […]%; assay type: functional, Homo sapiens; parameters: scale not given: the % may be the effect or the level left
CCRF-CEM [16] = assay: Inhibition of growth in MTX-resistant CCRF-CEM cell line, R30dm cells; assay type: functional, cell-based; settings: Homo sapiens
[17] = Inhibition of DHFR from Escherichia coli
CCRF-CEM [18] = assay: Inhibition of growth in CCRF-CEM cells; assay type: functional, cell-based; settings: Homo sapiens
[19] = target: T2, Dihydrofolate reductase (Homo sapiens); assay: Inhibition of recombinant human DHFR at >32 uM
[20] = target: Thymidylate synthase (Escherichia coli) (UniProt C3SWJ7); assay: Inhibition of TS from Escherichia coli at >2.7*10-5 nM
[21] = target: Thymidylate synthase (Escherichia coli) (UniProt C3SWJ7); assay: Inhibition of TS from Escherichia coli at >2.0*10-5 nM
Thymidylate synthase [22] = target: T1, Thymidylate synthase; assay: Inhibition of recombinant human TS at >2.2*10-5 nM
Target sequence in this assay (P04818 2-313 limits assumed): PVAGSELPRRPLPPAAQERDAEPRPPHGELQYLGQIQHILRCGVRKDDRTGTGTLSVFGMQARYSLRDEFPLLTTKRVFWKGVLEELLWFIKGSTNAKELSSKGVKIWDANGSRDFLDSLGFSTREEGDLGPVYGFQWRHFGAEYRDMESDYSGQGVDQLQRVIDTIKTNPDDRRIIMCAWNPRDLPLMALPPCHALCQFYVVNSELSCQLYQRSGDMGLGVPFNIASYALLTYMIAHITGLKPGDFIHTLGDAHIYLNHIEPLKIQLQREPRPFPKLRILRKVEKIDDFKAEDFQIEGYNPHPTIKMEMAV

[23] = target: Thymidylate synthase (Escherichia coli) (UniProt C3SWJ7); assay: Inhibition of TS from Escherichia coli at >3.0*10-5 nM
[24] = target: Thymidylate synthase (Escherichia coli) (UniProt C3SWJ7); assay: Inhibition of TS from Escherichia coli at >3.2*10-5 nM
Thymidylate synthase [25] = target: T1, Thymidylate synthase; assay: Inhibition of recombinant human TS at >3.1*10-5 nM
Target sequence in this assay (P04818 2-313 limits assumed): as above

[26] = target: Thymidylate synthase (Escherichia coli) (UniProt C3SWJ7); assay: Inhibition of TS from Escherichia coli at >3.1*10-5 nM
Thymidylate synthase [27] = target: T1, Thymidylate synthase; assay: Inhibition of recombinant human TS at >3.2*10-5 nM
Target sequence in this assay (P04818 2-313 limits assumed): as above

Dihydrofolate reductase = target: T3, Dihydrofolate reductase (Homo sapiens, UniProt P00374)
T3 sequence (P00374 whole entry): T2 sequence (whole entry)

CCRF-CEM [28] = assay: Protection against growth inhibition of CCRF-CEM cells in presence of 10 uM of Leucovorin at concentrations that inhibited the growth by 95%; assay type: functional, Homo sapiens; parameters: scale not given: the % may be the effect or the level left
[29] = substrate: CCc1[nH]c2nc(N)nc(O)c2c1Sc1ccc(C(=O)N[C@@H](CCC(=O)O)C(=O)O)cc1; assay: Binding with human cytosolic FPGS at <= 100 uM

Thymidylate synthase (Escherichia coli), sequence (C3SWJ7 1-264): as the sequence (C3SWJ7 whole entry) above

CCc1[nH]c2nc(N)nc(O)c2c1Sc1ccc(Br)cc1
inhibition [1]: 15%
IC50 (Thymidylate synthase [2]): 1000 nM
inhibition [3]: 14%

CCc1[nH]c2nc(N)nc(O)c2c1Sc1cccc(Cl)c1
inhibition [4]: 0%
inhibition [5]: 13%
IC50 (Thymidylate synthase [2]): 2600 nM

CCc1[nH]c2nc(N)nc(O)c2c1Sc1ccc([N+](=O)[O-])cc1
IC50 (Thymidylate synthase [2]): 240 nM
IC50 (Thymidylate synthase [6]): 24000 nM
inhibition [7]: 33%

CCc1[nH]c2nc(N)nc(O)c2c1Sc1ccc2ccccc2c1
IC50 (Thymidylate synthase [2]): 5600 nM

CCc1[nH]c2nc(N)nc(O)c2c1Sc1ccc(Cl)c(Cl)c1
inhibition [8]: 41%

CN(Cc1cnc2nc(N)nc(N)c2n1)c1ccc(C(=O)N[C@@H](CCC(=O)O)C(=O)O)cc1 [METHOTREXATE]
Activity (CCRF-CEM [9]): 10%
Activity (CCRF-CEM [10]): 10%
EC50 (R2-CCRF-CEM): 1700 nM
EC50 (R1-CCRF-CEM): 565 nM
Activity (CCRF-CEM [11]): 101%
Activity (CCRF-CEM [12]): 44%
Activity (CCRF-CEM [13]): 99%
Activity (CCRF-CEM [14]): 11%
Activity (CCRF-CEM [15]): 10%

Cc1[nH]c2nc(N)[nH]c(=O)c2c1Sc1ccc(C(=O)N[C@@H](CCC(=O)O)C(=O)O)cc1
EC50 (CCRF-CEM [16]): 810 nM
IC50 [17]: 21000 nM
EC50 (CCRF-CEM [18]): 450 nM

CCc1[nH]c2nc(N)nc(O)c2c1Sc1cccc(Br)c1
inhibition [8]: 10%
IC50 (Thymidylate synthase [2]): 1100 nM

CCc1[nH]c2nc(N)nc(O)c2c1Sc1ccc(F)cc1
inhibition [19]: 0%
IC50 (Thymidylate synthase [2]): 2700 nM
inhibition [20]: 0%

CCc1[nH]c2nc(N)nc(O)c2c1Sc1cc(C(F)(F)F)cc(C(F)(F)F)c1
inhibition [21]: 0%
inhibition (Thymidylate synthase [22]): 18%

CCc1[nH]c2nc(N)[nH]c(=O)c2c1Sc1ccc(Cl)c(Cl)c1
IC50 (Thymidylate synthase [2]): 230 nM

CCc1[nH]c2nc(N)nc(O)c2c1Sc1cccc2ccccc12
inhibition [23]: 15%

CCc1[nH]c2nc(N)[nH]c(=O)c2c1Sc1c(C)cccc1C
IC50 (Thymidylate synthase [2]): 26000 nM

CCc1[nH]c2nc(N)nc(O)c2c1Sc1c(C)cccc1C
inhibition [4]: 0%
inhibition [5]: 0%

CCc1[nH]c2nc(N)nc(O)c2c1Sc1ccc(OC)cc1
inhibition [24]: 22%
IC50 (Thymidylate synthase [2]): 16000 nM

CCc1[nH]c2nc(N)[nH]c(=O)c2c1Sc1cccc2ccccc12
IC50 (Thymidylate synthase [2]): 5600 nM

CCc1[nH]c2nc(N)nc(O)c2c1Sc1ccc(Cl)cc1
inhibition (Thymidylate synthase [25]): 25%
inhibition [26]: 27%

CCc1[nH]c2nc(N)nc(O)c2c1Sc1cccc(OC)c1
inhibition [24]: 5%
inhibition (Thymidylate synthase [27]): 15%

CCc1[nH]c2nc(N)nc(O)c2c1Sc1ccc(C(=O)N[C@@H](CCC(=O)O)C(=O)O)cc1
Activity (CCRF-CEM [9]): 106%
Activity (CCRF-CEM [10]): 18%
EC50 (R2-CCRF-CEM): 12500 nM
EC50 (CCRF-CEM [16]): 2900 nM
EC50 (R1-CCRF-CEM): 7050 nM
IC50 (Dihydrofolate reductase): 420 nM
Activity (CCRF-CEM [11]): 16%
Activity (CCRF-CEM [12]): 106%
Activity (CCRF-CEM [13]): 105%
Activity (CCRF-CEM [14]): 16%
IC50 (Thymidylate synthase [2]): 90 nM
Activity (CCRF-CEM [15]): 95%
IC50 [17]: > 21000 nM
IC50 (Thymidylate synthase [6]): 540 nM
EC50 (CCRF-CEM [18]): 2700 nM
Activity (CCRF-CEM [28]): 75%

B1: Folylpolyglutamate synthase, mitochondrial (Homo sapiens), Q05932 (protein)
chain: MSRARSHLRAALFLAAASARGITTQVAARRGLSAWPVPQEPSMEYQDAVRMLNTLQTNAGYLEQVKRQRGDPQTQLEAMELYLARSGLQVEDLDRLNIIHVTGTKGKGSTCAFTECILRSYGLKTGFFSSPHLVQVRERIRINGQPISPELFTKYFWRLYHRLEETKDGSCVSMPPYFRFLTLMAFHVFLQEKVDLAVVEVGIGGAYDCTNIIRKPVVCGVSSLGIDHTSLLGDTVEKIAWQKGGIFKQGVPAFTVLQPEGPLAVLRDRAQQISCPLYLCPMLEALEEGGPPLTLGLEGEHQRSNAALALQLAHCWLQRQDRHGAGEPKASRPGLLWQLPLAPVFQPTSHMRLGLRNTEWPGRTQVLRRGPLTWYLDGAHTASSAQACVRWFRQALQGRERPSGGPEVRVLLFNATGDRDPAALLKLLQPCQFDYAVFCPNLTEVSSTGNADQQNFTVTLDQVLLRCLEHQQHWNHLDEEQASPDLWSAPSPEPGGSASLLLAPHPPHTCSASSLVFSCISHALQWISQGRDPIFQPPSPPKGLLTHPVAHSGASILREAAAIHVLVTGSLHLVGGVLKLLEPALSQ
Km [29]: Not Active

Source: ChEMBL document CHEMBL1149399, “Dual inhibitors of thymidylate synthase and dihydrofolate reductase as antitumor agents: design, synthesis, and biological evaluation of classical and nonclassical pyrrolo[2,3-d]pyrimidine antifolates(1)” (J Med Chem, 2006)
